Results reported in patent US20250049914A1, “STEROID ACID-PEPTIDE BASED INTRACELLULAR CARGO DELIVERY” (DEFENCE THERAPEUTICS INC., priority 2021, published 2025).
Where no end group is shown, it is not given here.

Assays:
human WT MSCs [1] = test: OVA processing by human MSCs, flow cytometry; assay type: cell-based; details: CA-hnRNPA1-treated human MSCs
WT MSCs [2] = test: Flow cytometry of H2-Kb and I-Ab expression; assay type: cell-based, mouse; details: WT MSCs treated with CA-hnRNPA1
Source text: FIG. 18A and FIG. 18B show the results of antigen cross-presentation assay conducted using CA-hnRNPA1 admixed with OVA compared to controls and CA-SV40. […] For FIGS. 18B, 18E and 18F, n=6/group with *P<0.05, **P<0.01 and ***P<0.001.
FIG. 18G and FIG. 18H show the increase in H2-Kb and I-Ab expression in WT MSCs treated with CA-hnRNPA1, respectively.

cpMSCs [3] = test: OVA-DQ processing in cpMSCs, flow cytometry; assay type: cell-based; details: various molar ratios
Procedure: For this experiment, a cross-presenting mesenchymal stromal cell line (cpMSC) was used as the antigen presenting cells, which were pulsed with DQ™ Ovalbumin (i.e., OVADQ). OVADQ fluorescence was measured by flow cytometry. Different ratios of CA (NLS1 RSP17 [FIG. 17A]; NLS3 RPS17 [FIG. 17B]; and PQBP-1 [FIG. 17C] to antigen (CA: OVA=22:1, 12:1, 8:1, 4:1, and 2:1) were tested (hnRNPA1 M9 NLS at 2:1).
(§1) To further dissect the effect of bile acid peptide conjugates on antigen presentation, antigen internalization and processing were evaluated. cpMSCs were pulsed with OVA-labelled with AF647 in the presence of various molar ratios of different bile acid peptide conjugates, NLS1-RPS17 [FIG. 16A]; NLS3 RPS17 [FIG. 16B]; PQBP-1 [FIG. 16C]; and hnRNPA1 M9 NLS [FIG. 6]) and fluorescence was assessed by flow cytometry. […] OVA processing was assessed by pulsing cpMSCs with DQ™-Ovalbumin (OVA-DQ) in the presence of the same bile acid peptide conjugates as in FIGS. 6 and 16.

cpMSCs [4] = test: OVA-AF647 internalization in cpMSCs, flow cytometry; assay type: cell-based; details: various molar ratios
Procedure: For this experiment, a cross-presenting mesenchymal stromal cell line (cpMSC) was used as the antigen presenting cells, which were pulsed with the OVA cargo labelled with Alexa Fluor 647 (i.e., OVA^647)^TM. OVA^647 fluorescence was measured by flow cytometry. Different ratios of CA (NLS1 RPS17 [FIG. 16A]; NLS3 RPS17 [FIG. 16B]; and PQBP-1 [FIG. 16C] to antigen (CA: OVA=22:1, 12:1, 8:1, 4:1, and 2:1) were tested (hnRNPA1 M9 NLS at 2:1).
as §1

human WT MSCs [5] = test: OVA uptake by human MSCs, flow cytometry; assay type: cell-based; details: CA-hnRNPA1-treated human MSCs
[6] = system: mesenchymal stromal cells (MSCs); test: DQ OVA degradation/processing in MSCs, flow cytometry; assay type: cell-based; details: DQ OVA coincubated with conjugate, nine hours
Procedure: To evaluate OVA degradation/processing, cells were incubated with 10 µg/mL DQ™ OVA (with or without steroid acid-peptide modification) at 37° C. 30 minutes later, cells were washed, and regular media was added. At the end of the indicated incubation time, cells were collected and washed with cold PBS containing 2% FBS. Fluorescence was monitored by analyzing the cells by flow cytometry.
Mesenchymal stromal cells (MSCs) were incubated with either unconjugated fluorescently labeled OVA-AF647 alone or mixed with 45 μM of CA-HnRPA1 NLS steroid acid-peptide for nine hours and then intracellular OVA-AF647 delivery was assessed by flow cytometry as described in Example 1. […] The experiment was repeated with DQ™ OVA as cargo to evaluate the intracellular fate of the cargo delivered upon coincubation with CA-HnRPA1 NLS, as described in Example 4.

WT MSCs [7] = test: OVA-DQ processing by WT MSCs; assay type: cell-based, mouse; details: OVA-DQ admixed with CA-hnRNPA1
Procedure: (§2) To evaluate OVA uptake, MSCs were first treated with […] of OVA-AF647 admixed with CA-hnRNPA1 for 1 hour at 37° C. then assessed for their fluorescence intensity by flow-cytometry. To evaluate antigen processing, MSCs were incubated with 10 µg/mL OVA-DQ® admixed with A1 at 37° C. Half an hour later, cells were washed, and regular media added. At the end of the indicated incubation time, cells were collected and washed with cold PBS containing 2% FBS. Fluorescence was monitored by flow cytometry.

WT MSCs [8] = test: OVA-AF647 uptake by WT MSCs; assay type: cell-based, mouse; details: OVA-AF647 admixed with CA-hnRNPA1
Procedure: as §2

[9] = system: cross-presenting mesenchymal stromal cell line (cpMSC); test: Antigen-presentation assay using the B3Z reporter system, cross-presenting MSC line; assay type: cell-based; details: cpMSCs, OVA admixed, vs OVA alone or OVA mixed with CA-SV40NLS
Procedure: Various bile acid-NLS conjugates were screened using the B3Z reporter system. The B3Z cell line is a T-cell hybridoma specific for the H2-K^b-[…] complex. Once activated via its TCR, the LacZ reporter gene (under the NFAT promoter control) is expressed. Briefly, 1.5×10^5 BMDCs or 2.5×10^5 MSCs were co-cultured with 5×10^4 B3Z cells treated with the mixing conditions of ovalbumin (OVA) and bile acid-NLS conjugates for overnight at 37° C. with 5% CO2. The following day, all cells were washed twice with PBS (pH 7.4), and the cell pellets were lysed by adding 100 μL of a lysis buffer containing 0.15 mM chlorophenol red-beta-D-galactopyranoside (CPRG) substrate (Calbiochem, La Jolla, CA), 0.125% NP40 (EMD Sciences, La Jolla, CA), 9 mM MgCl2 (Aldrich, USA) and 100 mM 2-mercaptoethanol in PBS. After a 5- or 24-h incubation at 37° C., absorbance was taken at 570 nm with 636 nm as the reference wavelength. For these experiments, OVA was re-suspended in PBS (pH 7.3) at 5-10 mg/mL. The different bile acid-NLS conjugates were re-suspended in H2O at 10 mg/mL. Bile acid-NLS conjugate: antigen mixtures were prepared at different molar ratios according to Table 1.
Further variants of CA-SV40NLS were synthesized in which the SV40NLS peptide was replaced with peptides comprising other NLS's (Table 5) and the antigen presentation activities of the CA-NLS peptide conjugates were evaluated using the B3Z reporter system as described in Example 1. The following conjugate: antigen molar ratios were tested for each conjugate: 2:1, 4:1, 8:1, 12:1 and 22:1. The results in FIGS. 12-15 compare the antigen presentation activities of different conjugates at the conjugate: antigen ratio that yielded the highest B3Z response (OD570) for that conjugate.

Substance: CA-hnRNPA1: cholic acid conjugated to hnRNPA1 M9 NLS peptide CSNFGPMKGGNFGGRSSGPY (SEQ ID NO: 4) (not fully specified (N-terminus); also: cholic acid conjugate, site not given here)
- OVA processing by human MSCs (human WT MSCs [1]): increase of OVA processing
- I-Ab expression (WT MSCs [2]): increase
- OVA processing (OVA-DQ fluorescence) (cpMSCs [3]): enhance OVA processing
- OVA internalization (OVA-AF647 fluorescence) (cpMSCs [4]): enhance OVA internalization
- OVA uptake by human MSCs (human WT MSCs [5]): increase of OVA uptake
- DQ OVA fluorescence (intracellular degradation/processing) ([6]; listed as CA-HnRPA1 NLS): sharp increase
- DQ OVA fluorescence (intracellular degradation/processing) ([6]; listed as CA-hnRPA1 M9 NLS): increased intracellular degradation/processing
- OVA processing by WT MSCs (WT MSCs [7]): increase in OVA processing
- OVA uptake by WT MSCs (WT MSCs [8]): increase in OVA uptake
- antigen-presentation activity of cholic acid-NLS peptide conjugates (B3Z response) [9]: amongst the best enhancers of cross presentation
- antigen-presentation activity of cholic acid-NLS peptide conjugates (B3Z response) ([9]; listed as CA-hnRNPA1 M9 NLS): highly enhance cross presentation
